Literature values, collected in patent publication US8409610B2, “Wound care device” (Coloplast A/S, priority 2003, dated 2013).

Settings: reported values, given as examples

Row | SMILES | minimum plasma concentration for obtaining systemic effect [µg/mL]
1 | CC(=O)Oc1ccccc1C(=O)O [Acetylsalicylic acid] | 270
2 | CN1C(C(=O)Nc2ccccn2)=C(O)c2ccccc2S1(=O)=O [Piroxicam] | 1
3 | CC(C(=O)O)c1cccc(C(=O)c2ccccc2)c1 (stereo not shown) [Ketoprofen] | 3
4 | CC(C)Cc1ccc(C(C)C(=O)O)cc1 (stereo not shown) [Ibuprofen] | 10
